Target: T1, olfactory receptor OR5K1 (Homo sapiens, UniProt Q8NHB7)
T1 construct: expressed in transfected cells; host or cells: HEK293
T1 sequence (Q8NHB7 1-308): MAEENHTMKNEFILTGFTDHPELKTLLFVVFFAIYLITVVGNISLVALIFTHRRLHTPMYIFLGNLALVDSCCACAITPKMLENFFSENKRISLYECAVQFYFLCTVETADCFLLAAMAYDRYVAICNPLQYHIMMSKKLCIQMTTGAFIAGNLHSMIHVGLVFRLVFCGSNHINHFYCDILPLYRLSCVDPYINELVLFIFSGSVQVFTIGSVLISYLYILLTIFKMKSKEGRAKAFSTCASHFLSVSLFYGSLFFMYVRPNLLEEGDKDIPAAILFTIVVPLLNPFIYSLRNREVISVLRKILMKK
Assay: Luciferase reporter gene assay: response of olfactory receptor to pyrazine derivatives
Assay type: cell-based
Conditions: for response of OR5K1, dependency on concentration: 0, 3, 10, 30, 100, 300 and 1000 μM, HEK293 cells expressing OR5K1 with RTP1S variant, FIG. 2
Experimental: HEK293 cells expressing 373 types of human olfactory receptors were produced. A reaction solution having a composition shown in Table 1 was prepared and left to stand in a clean bench for 15 min and then was dispensed in each well of a 96-well plate (Becton, Dickinson and Company). Subsequently, HEK293 cells (100 μL, 3×10^5 cells/cm^2) were seeded in each well and cultured in an incubator at 37° C. and 5% CO2 for 24 hr.
An olfactory receptor expressed in HEK293 cells couples with endogenous Gas in the cells to activate adenylate cyclase and thereby increases the amount of intracellular cAMP. In this study, the response of a pyrazine derivative was measured by luciferase reporter gene assay which monitors an increase in the amount of intracellular cAMP as the luminescence value derived from a firefly luciferase gene (fluc2P-CRE-hygro). A Renilla luciferase gene was fused downstream of a CMV promoter (hRluc-CMV) and was also introduced to HEK293 cells as an internal standard to correct errors in transgenic efficiency and number of cells.
The culture medium was removed from the culture produced in the above 3), and 75 μL of a solution prepared with a CD293 medium (Invitrogen Inc.) so as to contain a pyrazine derivative (1 mM 2,6-dimethylpyrazine) was added thereto. The cells were cultured in a CO2 incubator for 2.5 hr to sufficiently express the luciferase gene in the cells. The luciferase activity was measured with a Dual-Glo™ luciferase assay system (Promega Corporation) in accordance with the operating manual of the system. The fold increases were calculated by dividing the luminescence value derived from firefly luciferase induced by stimulation with a pyrazine derivative at each concentration by the luminescence value in cells not stimulated with the pyrazine derivative and were used as an index of response strength.
Olfactory receptor OR5K1 (SEQ ID NO: 2) was expressed in HEK293 cells together with an RTP1S variant (SEQ ID NO: 4) by the same procedure as in Example 1, and the dependency of the response on the concentration (0, 3, 10, 30, 100, 300, and 1000 μM) of various pyrazine compounds was investigated. The pyrazine compounds used in this Example were pyrazine and pyrazine derivatives selected from the group consisting of 2-methylpyrazine, 2,3-dimethylpyrazine, 2,5-dimethylpyrazine, 2,3,5-trimethylpyrazine, 2,3,5,6-tetramethylpyrazine and 2-ethylpyrazine.

Row | response of OR5K1, dependency on concentration | response of the 373 types of olfactory receptors to the pyrazine derivative (1 mM, HEK293 cells expressing human olfactory receptors, FIG. 1) | Structure (SMILES)
1 | responded in a dose-dependent manner | only olfactory receptor OR5K1 responded | Cc1cncc(C)n1 [2,6-dimethylpyrazine]
2 | responded in a dose-dependent manner |  | Cc1cnccn1 [2-methylpyrazine]
3 | did not respond |  | c1cnccn1 [pyrazine]

Row | Structure (SMILES) | response of OR5K1, dependency on concentration | response of the 373 types of olfactory receptors to the pyrazine derivative (1 mM, HEK293 cells expressing human olfactory receptors, FIG. 1)
4 | CCc1cnccn1 [2-ethylpyrazine] | responded in a dose-dependent manner | 
